Test results reported in patent US20240216401A1, “COMBINATION THERAPY BY USING AKR1C3-ACTIVATED COMPOUND WITH IMMUNE CHECKPOINT INHIBITOR” (OBI Pharma, Inc., priority 2021, published 2024).

Tested on: HepG2 tumor
Assay: Example 2: tumor volume, tumor weight and TGI in HepG2 tumor bearing humanized mice
Type: in vivo, Mus musculus
Conditions: Example 2, D30
Experimental: 1. Species: Mus musculus • Strain: Advanced immunodeficiency mouse. • (NOD.CgPrkdc^scid Il2rg) • Source: Trineo Biotechnology Co., LTD.
Each group contains six mice. The human hepatocellular carcinoma cell line HepG2 were subcutaneously inoculated to the advanced immune-deficiency mice. Total of 42 mice were included in this study.
2.2. […] The subcutaneous injection volume was […].
3.1. […] The injection was performed using insulin syringe with the dosage of 0.3 mg/kg or 1 mg/kg and the injection volume was 5 mL/kg. […] The reference item was administered for G1. The procedure followed the standards of sample administration. The starting day of test item administration was denoted as the first experimental day (DO).
3.2. […] The injection was performed using insulin syringe with the dosage of 20 mg/kg and injection volume of 10 mL/kg. […] The procedure followed the standards of sample administration.
The measurement was performed from the next day of the inoculation. The tumor volumes were measured and recorded twice a week (Mon., Thur.). Tumor volume was calculated by ellipsoid equation according to the records ((major axis×minor axis×minor axis)×(π/6)).
Tumor volumes were used to calculate tumor growth inhibition (TGI) rates according to the following formula: TGI (%)=[1−(Ti−T0)/(Ci−C0)]×100, where Ti and Ci indicate the mean tumor volume in the treatment groups and vehicle group at the end of the experiment (Day 30). Whereas, T0 and C0 indicate the mean tumor volumes in the treatment group and vehicle group at the beginning of the experiment (Day 0).
Mice were sacrificed by CO2 euthanasia at the end of the study duration, and the connective tissue around tumor was resected. The tumor samples were then weighed and cut equally into three sections if the tumor weight over 400 mg. The tumor tissue was prepared for the isolation of tumor-infiltrating lymphocytes (TILs). The rest of one section was fixed in 10% formaldehyde and embedded in paraffin; the other was stored at a temperature below −70° C.

For “anti-hPD-1: Anti-Human PD-1 antibody, Pembrolizumab, Merck & Co., Inc.”, the mean tumor volume (mean±SEM, anti-hPD-1 20 mg/kg IP alone (G4)) was 983.84±266.44 mm^3 and the “mean tumor volume compared with vehicle (in words)” value (vs vehicle (G1), OBI-3424 high-dose 1 mg/kg (G3), anti-hPD-1 20 mg/kg (G4), combinations G5-G7) was “No statistically significant difference”.
